According to patent publication US20230085307A1, “PYRIDAZINONE COMPOUND AND HERBICIDE” (NISSAN CHEMICAL CORPORATION, priority 2019, published 2023):

Columns and labels:
[1] = tested on: velvetleaf; assay: Test Example 4: herbicidal effect by soil treatment (Table 19, symbol M); assay type: in vivo, velvetleaf (Abutilon theophrasti); settings: amount of applied herbicide 320 g/ha
Procedure, shortened: (§1)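 Pre-emergence style soil spray: seeds under ~1.5 cm sterilized diluvial soil received a uniform coat of emulsion diluted to the predetermined herbicide amount. Greenhouse 25–30° C; readout at week three on previously defined criteria.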

[2] = tested on: southern crabgrass; assay: Test Example 5: herbicidal effect by foliage application, plastic box (Table 20, symbol F); assay type: in vivo, southern crabgrass (Digitaria ciliaris); settings: foliage application, AAH 320 g/ha, three weeks after application
Procedure, shortened: (§2)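 Plants were sown into sterilized diluvial soil under about 1.5 cm cover and kept in a greenhouse at 25° C. to 30° C. Fourteen days on, foliage received an even spray of the diluted emulsion. Herbicidal or crop effect was judged three weeks afterwards.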

[3] = tested on: barnyard grass; assay: Test Example 4: herbicidal effect by soil treatment (Table 19, symbol H); assay type: in vivo, barnyard grass (Echinochloa crus-galli); settings: amount of applied herbicide 320 g/ha
Procedure, shortened: as §1

[4] = tested on: wild oat; assay: Test Example 4: herbicidal effect by soil treatment (Table 19, symbol I); assay type: in vivo, wild oat (Avena fatua); settings: amount of applied herbicide 320 g/ha
Procedure, shortened: as §1

[5] = tested on: velvetleaf; assay: Test Example 5: herbicidal effect by foliage application, plastic box (Table 20, symbol M); assay type: in vivo, velvetleaf (Abutilon theophrasti); settings: foliage application, AAH 320 g/ha, three weeks after application
Procedure, shortened: as §2

[6] = tested on: lambsquarters; assay: Test Example 5: herbicidal effect by foliage application, plastic box (Table 20, symbol O); assay type: in vivo, lambsquarters (Chenopodium album); settings: foliage application, AAH 320 g/ha, three weeks after application
Procedure, shortened: as §2

[7] = tested on: false cleavers; assay: Test Example 4: herbicidal effect by soil treatment (Table 19, symbol Q); assay type: in vivo, false cleavers (Galium spurium); settings: amount of applied herbicide 320 g/ha
Procedure, shortened: as §1

[8] = tested on: redroot pigweed; assay: Test Example 4: herbicidal effect by soil treatment (Table 19, symbol N); assay type: in vivo, redroot pigweed (Amaranthus retroflexus); settings: amount of applied herbicide 320 g/ha
Procedure, shortened: as §1

[9] = tested on: chickweed; assay: Test Example 5: herbicidal effect by foliage application, plastic box (Table 20, symbol P); assay type: in vivo, common chickweed (Stellaria media); settings: foliage application, AAH 320 g/ha, three weeks after application
Procedure, shortened: as §2

[10] = tested on: rice flat sedge; assay: Test Example 3: herbicidal effect by foliage application, Wagner pot (Table 18, symbol E); assay type: in vivo, rice flat sedge (Cyperus iria); settings: 320 g/ha
Procedure, shortened: (§3)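 Plants were sown in alluvial soil held under 0.1–0.5 cm standing water and grown 14 days in a greenhouse at 25–30 °C. An emulsifiable formulation, water-diluted to the set dose, was then sprayed onto the foliage, and effects were scored three weeks later using previously defined criteria.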

[11] = tested on: Chinese sprangletop; assay: Test Example 3: herbicidal effect by foliage application, Wagner pot (Table 18, symbol D); assay type: in vivo, chinese sprangletop (Leptochloa chinensis); settings: 320 g/ha
Procedure, shortened: as §3

[12] = tested on: wild oat; assay: Test Example 5: herbicidal effect by foliage application, plastic box (Table 20, symbol I); assay type: in vivo, wild oat (Avena fatua); settings: foliage application, AAH 320 g/ha, three weeks after application
Procedure, shortened: as §2

[13] = tested on: persian speedwell; assay: Test Example 4: herbicidal effect by soil treatment (Table 19, symbol R); assay type: in vivo, Persian speedwell (Veronica persica); settings: amount of applied herbicide 320 g/ha
Procedure, shortened: as §1

[14] = tested on: barnyard grass; assay: Test Example 3: herbicidal effect by foliage application, Wagner pot (Table 18, symbol H); assay type: in vivo, barnyard grass (Echinochloa crus-galli); settings: 320 g/ha
Procedure, shortened: as §3

[15] = tested on: chickweed; assay: Test Example 4: herbicidal effect by soil treatment (Table 19, symbol P); assay type: in vivo, common chickweed (Stellaria media); settings: amount of applied herbicide 320 g/ha
Procedure, shortened: as §1

[16] = tested on: blackgrass; assay: Test Example 5: herbicidal effect by foliage application, plastic box (Table 20, symbol J); assay type: in vivo, blackgrass (Alopecurus myosuroides); settings: foliage application, AAH 320 g/ha, three weeks after application
Procedure, shortened: as §2

[17] = tested on: green foxtail; assay: Test Example 4: herbicidal effect by soil treatment (Table 19, symbol G); assay type: in vivo, green foxtail (Setaria viridis); settings: amount of applied herbicide 320 g/ha
Procedure, shortened: as §1

[18] = tested on: green foxtail; assay: Test Example 5: herbicidal effect by foliage application, plastic box (Table 20, symbol G); assay type: in vivo, green foxtail (Setaria viridis); settings: foliage application, AAH 320 g/ha, three weeks after application
Procedure, shortened: as §2

[19] = tested on: southern crabgrass; assay: Test Example 4: herbicidal effect by soil treatment (Table 19, symbol F); assay type: in vivo, southern crabgrass (Digitaria ciliaris); settings: amount of applied herbicide 320 g/ha
Procedure, shortened: as §1

[20] = tested on: Italian ryegrass; assay: Test Example 4: herbicidal effect by soil treatment (Table 19, symbol K); assay type: in vivo, Italian ryegrass (Lolium multiflorum); settings: amount of applied herbicide 320 g/ha
Procedure, shortened: as §1

[21] = tested on: blackgrass; assay: Test Example 4: herbicidal effect by soil treatment (Table 19, symbol J); assay type: in vivo, blackgrass (Alopecurus myosuroides); settings: amount of applied herbicide 320 g/ha
Procedure, shortened: as §1

[22] = tested on: barnyard grass; assay: Test Example 5: herbicidal effect by foliage application, plastic box (Table 20, symbol H); assay type: in vivo, barnyard grass (Echinochloa crus-galli); settings: foliage application, AAH 320 g/ha, three weeks after application
Procedure, shortened: as §2

[23] = tested on: lambsquarters; assay: Test Example 4: herbicidal effect by soil treatment (Table 19, symbol O); assay type: in vivo, lambsquarters (Chenopodium album); settings: amount of applied herbicide 320 g/ha
Procedure, shortened: as §1

[24] = tested on: false cleavers; assay: Test Example 5: herbicidal effect by foliage application, plastic box (Table 20, symbol Q); assay type: in vivo, false cleavers (Galium spurium); settings: foliage application, AAH 320 g/ha, three weeks after application
Procedure, shortened: as §2

[25] = tested on: windgrass; assay: Test Example 4: herbicidal effect by soil treatment (Table 19, symbol L); assay type: in vivo, windgrass (Apera spica-venti); settings: amount of applied herbicide 320 g/ha
Procedure, shortened: as §1

[26] = tested on: redroot pigweed; assay: Test Example 5: herbicidal effect by foliage application, plastic box (Table 20, symbol N); assay type: in vivo, redroot pigweed (Amaranthus retroflexus); settings: foliage application, AAH 320 g/ha, three weeks after application
Procedure, shortened: as §2

[27] = tested on: windgrass; assay: Test Example 5: herbicidal effect by foliage application, plastic box (Table 20, symbol L); assay type: in vivo, windgrass (Apera spica-venti); settings: foliage application, AAH 320 g/ha, three weeks after application
Procedure, shortened: as §2

[28] = tested on: persian speedwell; assay: Test Example 5: herbicidal effect by foliage application, plastic box (Table 20, symbol R); assay type: in vivo, Persian speedwell (Veronica persica); settings: foliage application, AAH 320 g/ha, three weeks after application
Procedure, shortened: as §2

[29] = tested on: Italian ryegrass; assay: Test Example 5: herbicidal effect by foliage application, plastic box (Table 20, symbol K); assay type: in vivo, Italian ryegrass (Lolium multiflorum); settings: foliage application, AAH 320 g/ha, three weeks after application
Procedure, shortened: as §2

## CCCC(=O)Oc1c(C)nn(C)c(=O)c1-c1c(-c2ccc3c(c2)OC(F)(F)O3)sc2ccccc12 [1-100]
[1]
  herbicidal effect rating, M: velvetleaf: 0 (Herbicidal rate of 5% or less (almost no effect))
[2]
  F: southern crabgrass, herbicidal effect: 0 (Herbicidal rate of 5% or less (almost no effect))
[3]
  herbicidal effect rating, H: barnyard grass: 0 (Herbicidal rate of 5% or less (almost no effect))
[4]
  herbicidal effect rating, I: wild oat: 0 (Herbicidal rate of 5% or less (almost no effect))
[5]
  M: velvetleaf, herbicidal effect: 3 (Herbicidal rate of 40% or more and less than 70%)
[6]
  O: lambsquarters, herbicidal effect: 0 (Herbicidal rate of 5% or less (almost no effect))
[7]
  herbicidal effect rating, Q: false cleavers: 2 (Herbicidal rate of 20% or more and less than 40%)
[8]
  herbicidal effect rating, N: redroot pigweed: 0 (Herbicidal rate of 5% or less (almost no effect))
[9]
  P: chickweed, herbicidal effect: 5 (Herbicidal rate of 90% or more (almost completely withered))
[10]
  herbicidal effect on E (rice flat sedge), rating 0-5: 4 (Herbicidal rate of 70% or more and less than 90%)
[11]
  herbicidal effect on D (Chinese sprangletop), rating 0-5: 0 (Herbicidal rate of 5% or less (almost no effect))
[12]
  I: wild oat, herbicidal effect: 1 (Herbicidal rate of 5% or more and less than 20%)
[13]
  herbicidal effect rating, R: persian speedwell: 5 (Herbicidal rate of 90% or more (almost completely withered))
[14]
  herbicidal effect on H (barnyard grass), rating 0-5: 0 (Herbicidal rate of 5% or less (almost no effect))
[15]
  herbicidal effect rating, P: chickweed: 2 (Herbicidal rate of 20% or more and less than 40%)
[16]
  J: blackgrass, herbicidal effect: 0 (Herbicidal rate of 5% or less (almost no effect))
[17]
  herbicidal effect rating, G: green foxtail: 0 (Herbicidal rate of 5% or less (almost no effect))
[18]
  G: green foxtail, herbicidal effect: 0 (Herbicidal rate of 5% or less (almost no effect))
[19]
  herbicidal effect rating, F: southern crabgrass: 0 (Herbicidal rate of 5% or less (almost no effect))
[20]
  herbicidal effect rating, K: Italian ryegrass: 3 (Herbicidal rate of 40% or more and less than 70%)
[21]
  herbicidal effect rating, J: blackgrass: 0 (Herbicidal rate of 5% or less (almost no effect))
[22]
  H: barnyard grass, herbicidal effect: 0 (Herbicidal rate of 5% or less (almost no effect))
[23]
  herbicidal effect rating, O: lambsquarters: 0 (Herbicidal rate of 5% or less (almost no effect))
[24]
  Q: false cleavers, herbicidal effect: 3 (Herbicidal rate of 40% or more and less than 70%)
[25]
  herbicidal effect rating, L: windgrass: 0 (Herbicidal rate of 5% or less (almost no effect))
[26]
  N: redroot pigweed, herbicidal effect: 0 (Herbicidal rate of 5% or less (almost no effect))
[27]
  L: windgrass, herbicidal effect: 0 (Herbicidal rate of 5% or less (almost no effect))
[28]
  R: persian speedwell, herbicidal effect: 5 (Herbicidal rate of 90% or more (almost completely withered))
[29]
  K: Italian ryegrass, herbicidal effect: 1 (Herbicidal rate of 5% or more and less than 20%)
